Assay results as given in PubChem BioAssay AID330 (DTP/NCI, 2004).
Several values for one entry are separate records, joined by “and”; a condition that tells them apart may be missing. Identical values can stand only once. Inconclusive results and toxic doses are left out. Rule for the calls: active = survival T/C of 150% or more; inactive = T/C below 125% in these data.

Test system: P388 leukemia ip, CD2F1 mice, survival T/C
Assay: NCI In Vivo Anticancer Drug Screen. Data for tumor model P388 Leukemia (intraperitoneal) in CD2F1 (CDF1) mice
Conditions: endpoint: median survival time, higher = longer survival
Summary of the method: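 Mice carrying the transplanted tumor received test compound or vehicle. Survival was recorded in each group, and the value is the treated-group measurement divided by that of the vehicle-treated control group.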

[1] = dose: 50.0 mg/kg/injection, schedule: Q01DX005 (ip), vehicle: saline with Tween-80
[2] = dose: 100.0 mg/kg/injection, schedule: Q01DX005 (ip), vehicle: saline with Tween-80
[3] = dose: 200.0 mg/kg/injection, schedule: Q01DX005 (ip), vehicle: saline with Tween-80
[4] = dose: 100.0 mg/kg/injection, schedule: Q04DX002 (ip), vehicle: saline with Tween-80
[5] = dose: 200.0 mg/kg/injection, schedule: Q04DX002 (ip), vehicle: saline with Tween-80
[6] = dose: 400.0 mg/kg/injection, schedule: Q04DX002 (ip), vehicle: saline with Tween-80
[7] = dose: 50.0 mg/kg/injection, schedule: Q01DX005 (ip), vehicle: Klucel (hydroxypropylcellulose) (HPC)
[8] = dose: 100.0 mg/kg/injection, schedule: Q01DX005 (ip), vehicle: Klucel (hydroxypropylcellulose) (HPC)
[9] = dose: 200.0 mg/kg/injection, schedule: Q01DX005 (ip), vehicle: Klucel (hydroxypropylcellulose) (HPC)
[10] = dose: 12.5 mg/kg/injection, schedule: Q01DX009 (ip), vehicle: Klucel (hydroxypropylcellulose) (HPC)
[11] = dose: 25.0 mg/kg/injection, schedule: Q01DX009 (ip), vehicle: Klucel (hydroxypropylcellulose) (HPC)
[12] = dose: 50.0 mg/kg/injection, schedule: Q01DX009 (ip), vehicle: Klucel (hydroxypropylcellulose) (HPC)
[13] = dose: 50.0 mg/kg/injection, schedule: Q01DX009 (ip), vehicle: saline
[14] = dose: 60.0 mg/kg/injection, schedule: Q01DX005 (ip), vehicle: saline with Tween-80
[15] = dose: 120.0 mg/kg/injection, schedule: Q01DX005 (ip), vehicle: saline with Tween-80
[16] = dose: 100.0 mg/kg/injection, schedule: Q01DX009 (ip), vehicle: saline
[17] = dose: 200.0 mg/kg/injection, schedule: Q01DX009 (ip), vehicle: saline
[18] = dose: 240.0 mg/kg/injection, schedule: Q01DX005 (ip), vehicle: saline with Tween-80

Measured: T/C

O=C(O)c1nn(-c2ccccc2-c2n[nH]c(=O)[nH]c2=O)c(=O)[nH]c1=O
inactive: [1] 101 % of control | [2] 90 % of control | [3] 95 % of control

COC(=O)c1nc(SC)[nH]c1CC#N
inactive: [4] 108 % of control | [5] 98 % of control | [6] 99 % of control

COc1cc(C(=O)NNC(C)C)cc(OC)c1OC
inactive: [7] 104 % of control | [8] 100 % of control | [9] 107 % of control

NC(CSc1nc2ccccn2c1[N+](=O)[O-])C(=O)O (centres undefined)
inactive: [10] 98 % of control | [11] 100 % of control | [12] 99 % of control and 100 % of control

O=C1C2CC3OC3CC2C(=O)N1CN1C(=O)C2CC3OC3CC2C1=O (centres undefined)
inactive: [7] 106 % of control | [8] 91 % of control | [9] 89 % of control

CCCOc1cncc(C)n1
inactive: dose: 12.5 mg/kg/injection, schedule: Q01DX009 (ip), vehicle: saline 95 % of control | dose: 25.0 mg/kg/injection, schedule: Q01DX009 (ip), vehicle: saline 87 % of control | [13] 101 % of control and 97 % of control

CCOC(=O)c1c(OC)c(-c2ccccc2)c(=O)n2c3ccccc3n(C)c12
inactive: [14] 95 % of control | [15] 88 % of control

COc1ccc2ccccc2c1C1=CC(c2ccccc2)C(c2cc(C)n(-c3ccccc3)n2)C(=O)N1 (centres undefined)
inactive: [4] 101 % of control | [5] 106 % of control

COc1ccccc1N1CCN(CCCNc2cc(=O)n(C)c(=O)n2C)CC1
inactive: [12] 98 % of control | dose: 100.0 mg/kg/injection, schedule: Q01DX009 (ip), vehicle: Klucel (hydroxypropylcellulose) (HPC) 104 % of control | dose: 200.0 mg/kg/injection, schedule: Q01DX009 (ip), vehicle: Klucel (hydroxypropylcellulose) (HPC) 108 % of control

CC1(C)CC(O)C2OC2C1 (centres undefined)
inactive: [1] 101 % of control | [2] 108 % of control | [3] 106 % of control

Cc1c(C(=O)O)nc(C(Br)(Br)Br)[nH]c1=O
inactive: dose: 12.5 mg/kg/injection, schedule: Q01DX009 (ip), vehicle: distilled water + Tween-80 94 % of control | dose: 25.0 mg/kg/injection, schedule: Q01DX009 (ip), vehicle: distilled water + Tween-80 118 % of control | dose: 50.0 mg/kg/injection, schedule: Q01DX009 (ip), vehicle: distilled water + Tween-80 118 % of control | dose: 100.0 mg/kg/injection, schedule: Q01DX009 (ip), vehicle: distilled water + Tween-80 107 % of control | dose: 200.0 mg/kg/injection, schedule: Q01DX009 (ip), vehicle: distilled water + Tween-80 107 % of control

CC(C)(C)c1ccc(-c2nnc(C(F)(F)F)nn2)cc1
inactive: dose: 50.0 mg/kg/injection, schedule: Q01DX009 (ip), vehicle: saline with Tween-80 100 % of control | dose: 100.0 mg/kg/injection, schedule: Q01DX009 (ip), vehicle: saline with Tween-80 100 % of control | dose: 200.0 mg/kg/injection, schedule: Q01DX009 (ip), vehicle: saline with Tween-80 108 % of control

c1ccc2c(c1)oc1cc3c(cc12)ncc1cccn13
inactive: dose: 1.56 mg/kg/injection, schedule: Q01DX005 (ip), vehicle: saline with Tween-80 103 % of control | dose: 3.12 mg/kg/injection, schedule: Q01DX005 (ip), vehicle: saline with Tween-80 100 % of control | dose: 6.25 mg/kg/injection, schedule: Q01DX005 (ip), vehicle: saline with Tween-80 97 % of control | dose: 12.5 mg/kg/injection, schedule: Q01DX005 (ip), vehicle: saline with Tween-80 90 % of control

C=C(C)C(=O)OC1CCC2Cc3occ(C)c3C(OC(=O)C=C(C)C)C2(C)C1C (centres undefined)
inactive: dose: 10.0 mg/kg/injection, schedule: Q01DX009 (ip), vehicle: saline with Tween-80 103 % of control | dose: 20.0 mg/kg/injection, schedule: Q01DX009 (ip), vehicle: saline with Tween-80 101 % of control | dose: 40.0 mg/kg/injection, schedule: Q01DX009 (ip), vehicle: saline with Tween-80 100 % of control | dose: 80.0 mg/kg/injection, schedule: Q01DX009 (ip), vehicle: saline with Tween-80 98 % of control

O=c1nc2n(CCO)c3ccccc3cc-2c(=O)[nH]1
inactive: dose: 60.0 mg/kg/injection, schedule: Q01DX005 (ip), vehicle: saline 96 % of control | dose: 120.0 mg/kg/injection, schedule: Q01DX005 (ip), vehicle: saline 95 % of control

O=C1c2ccccc2-c2cn(-c3ccccc3)c3cccc1c23
inactive: [7] 103 % of control | [8] 100 % of control

CN(C)C=Nc1ccccc1
inactive: [13] 103 % of control | [16] 103 % of control | [17] 108 % of control

Cc1cc(NC(=O)C(=O)C(C#N)c2cccc(Cl)c2)no1 (centres undefined)
inactive: [1] 100 % of control | [2] 101 % of control | [3] 108 % of control

Nc1nc[nH]c(=O)c1NC=O
inactive: dose: 100.0 mg/kg/injection, schedule: Q04DX003 (ip), vehicle: saline 120 % of control | dose: 200.0 mg/kg/injection, schedule: Q04DX003 (ip), vehicle: saline 100 % of control | dose: 400.0 mg/kg/injection, schedule: Q04DX003 (ip), vehicle: saline 110 % of control

O=c1[nH]nc(-c2ccccc2)c2c1[nH]c1ccccc12
inactive: [14] 93 % of control | [15] 96 % of control | [18] 86 % of control

Brc1ccc2[nH]c3nc(N/N=C/c4cccnc4)nnc3c2c1
inactive: [4] 93 % of control | [5] 91 % of control | [6] 99 % of control

COc1ccc2[nH]c3c(c2c1)CNCC3
inactive: [16] 110 % of control | [17] 112 % of control

CC(=O)OCCN1CCOC(O)(c2cccc(C(F)(F)F)c2)C1 (centres undefined)
inactive: [14] 115 % of control | [15] 108 % of control | [18] 113 % of control

CCCCCC(=O)OCCN1CCN(CCCN2c3ccccc3Sc3ccc(C(F)(F)F)cc32)CC1
inactive: [10] 113 % of control | [11] 101 % of control

O=[N+]([O-])c1cc2[nH]cnc2c([N+](=O)[O-])c1Nc1ccc(O)cc1
inactive: dose: 100.0 mg/kg/injection, schedule: Q04DX003 (ip), vehicle: saline with Tween-80 87 % of control | dose: 200.0 mg/kg/injection, schedule: Q04DX003 (ip), vehicle: saline with Tween-80 95 % of control | dose: 400.0 mg/kg/injection, schedule: Q04DX003 (ip), vehicle: saline with Tween-80 101 % of control

CC1CCC2C(C)C3C(CC4C5CCC6CC(O)CCC6(C)C5CCC43CO)N2C1 (centres undefined)
inactive: [7] 101 % of control | [8] 108 % of control | [9] 113 % of control

COc1cccc2c1C(=O)c1c(O)c3c(c(O)c1C2=O)CC(O)(C(=O)COc1ccccc1)CC3O (centres undefined)
inactive: dose: 1.56 mg/kg/injection, schedule: Q01DX009 (ip), vehicle: other 108 % of control | dose: 3.13 mg/kg/injection, schedule: Q01DX009 (ip), vehicle: other 106 % of control | dose: 6.25 mg/kg/injection, schedule: Q01DX009 (ip), vehicle: other 105 % of control | dose: 12.5 mg/kg/injection, schedule: Q01DX009 (ip), vehicle: other 97 % of control | dose: 25.0 mg/kg/injection, schedule: Q01DX009 (ip), vehicle: other 91 % of control

C=C(Cl)C(=NC(C)(C)C)Nc1ccccc1C
inactive: dose: 1.56 mg/kg/injection, schedule: Q01DX005 (ip), vehicle: saline 100 % of control | dose: 3.12 mg/kg/injection, schedule: Q01DX005 (ip), vehicle: Klucel (hydroxypropylcellulose) (HPC) 103 % of control | dose: 3.12 mg/kg/injection, schedule: Q01DX005 (ip), vehicle: saline 102 % of control | dose: 6.25 mg/kg/injection, schedule: Q01DX005 (ip), vehicle: Klucel (hydroxypropylcellulose) (HPC) 107 % of control and 117 % of control | dose: 6.25 mg/kg/injection, schedule: Q01DX005 (ip), vehicle: saline 109 % of control and 118 % of control | dose: 12.5 mg/kg/injection, schedule: Q01DX005 (ip), vehicle: Klucel (hydroxypropylcellulose) (HPC) 117 % of control | dose: 12.5 mg/kg/injection, schedule: Q01DX005 (ip), vehicle: saline 108 % of control | dose: 25.0 mg/kg/injection, schedule: Q01DX005 (ip), vehicle: Klucel (hydroxypropylcellulose) (HPC) 121 % of control
